From US9770026B2, “Substituted pyrimidine compound and uses thereof” (Shenyang Sinochem Agrochemicals R&D Co., Ltd., priority 2012, dated 2017)

Assays:
Diamond back moth = assay: insecticidal activity against diamond back moth, airbrush spray; assay type: in vivo; conditions: 600 ppm, mortality after 72 hrs
Method: (§1) Compounds were dissolved in mixed solvent (acetone:methanol=1:1), and diluted to required concentration with water containing 0.1% of tween 80.
(§2) Diamond back moth, armyworm, peach aphid and carmine spider mite were used as targets and the method of spraying by airbrush was used for determination of insecticidal biassays.
(§3) The method of spraying by airbrush: The cabbage leaves were made into plates of 2 cm diameter by use of punch. A test solution (0.5 ml) was sprayed by airbrush at the pressure of 0.7 kg/cm^2 to both sides of every plate. 10 Second instar larvae were put into the petri-dishes after the leaf disc air-dried and 3 replicates were set for each treatment. Then the insects were maintained in observation room (25° C., 60˜70% R.H.). Scores were conducted and mortalities were calculated after 72 hrs.

cucumber downy mildew = assay: protectant activity in vivo against cucumber downy mildew; conditions: for control effect against cucumber downy mildew (%): protectant activity
[1] = system: Green peach aphids (Myzus Persicae Sulzer); assay: bioactivity test against green peach aphid, airbrush foliar spray; assay type: in vivo; conditions: for Insecticidal activity against peach aphid (%): contrastive test; for control (test results against green peach aphid): death rate after 48 hrs
Summary of the method: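 Aphids (15-30 per cabbage leaf disc) on moist filter paper were airbrush-sprayed at 10 psi, 0.5 mL, with compound from acetone:methanol (1:1) diluted in water with 0.1% tween 80. Held at 25±1 C, 60±5% RH; survivors counted after 48 hrs to give death rates.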

corn rust = assay: protectant activity in vivo against corn rust
wheat powdery mildew = assay: protectant activity in vivo against wheat powdery mildew
carmine spider mite = assay: bioactivity test against carmine spider mite, airbrush spray; assay type: in vivo; conditions: 600 ppm, mortality after 72 hrs
Method: as §1, §2
The method: Broadbean shoots with two true leaves in pot were taken, the healthy adults of carmine spider mite were inoculated to the leaves. The adults were counted and then sprayed with airbrush at the pressure of 0.7 kg/cm^2 and at dose of 0.5 ml. 3 replicates were set for each treatment. And then they were maintained in standard observation room. Scores were conducted and mortalities were calculated after 72 hrs.

armyworm = assay: bioactivity test against armyworm, airbrush spray; assay type: in vivo; conditions: 600 ppm, mortality after 72 h
Method: as §1, §2
as §3, with “corn” for “cabbage”, “(25 °C,” for “(25° C.,”, “h.” for “hrs.”

| SMILES | control (test results against diamond back moth) (Diamond back moth) [%] | protectant activity against cucumber downy mildew in vivo (cucumber downy mildew; 50 ppm) [%] | protectant activity against cucumber downy mildew in vivo (cucumber downy mildew; 100 ppm) [%] | protectant activity against cucumber downy mildew in vivo (cucumber downy mildew; 400 ppm) [%] | control (test results against green peach aphid) ([1]; 100 ppm) [%] | control (test results against green peach aphid) ([1]; 600 ppm) [%] | protectant activity against corn rust in vivo (corn rust; 100 ppm) [%] | protectant activity against corn rust in vivo (corn rust; 400 ppm) [%] | protectant activity against wheat powdery mildew in vivo (wheat powdery mildew; 400 ppm) [%] | control against carmine spider mite (carmine spider mite) [%] | control (test results against armyworm) (armyworm) [%] | control effect against cucumber downy mildew (%) (cucumber downy mildew; 25 mg/L) | control effect against cucumber downy mildew (%) (cucumber downy mildew; 50 mg/L) | control effect against cucumber downy mildew (%) (cucumber downy mildew; 100 mg/L) | control effect against cucumber downy mildew (%) (cucumber downy mildew; 400 mg/L) | protectant activity against cucumber downy mildew in vivo (cucumber downy mildew; 25 ppm) [%] | also measured |
| --- | --- | --- | --- | --- | --- | --- | --- | --- | --- | --- | --- | --- | --- | --- | --- | --- | --- |
| CCc1ncnc(NCCc2ccc(Oc3ccc(S(N)(=O)=O)cc3)cc2)c1Cl [II-556] | 100 | – | – | – | – | – | – | – | – | – | – | – | – | – | – | – | – |
| COc1cc(CCNc2ncnc(C)c2Cl)ccc1Oc1ccc(Cl)cc1 [II-1687] | 100 | 100 | 100 | 100 | 100 | 100 | 100 | 100 | 100 | 100 | – | – | – | – | – | – | Insecticidal activity against peach aphid (%) ([1]; 10 mg/L): 100%; Insecticidal activity against peach aphid (%) ([1]; 100 mg/L): 100%; Insecticidal activity against peach aphid (%) ([1]; 600 mg/L): 100%; control (test results against green peach aphid) ([1]; 10 ppm): 100%; protectant activity against wheat powdery mildew in vivo (wheat powdery mildew; 25 ppm): 100%; protectant activity against wheat powdery mildew in vivo (wheat powdery mildew; 100 ppm): 100% |
| Cc1ncnc(NCCc2ccc(Oc3cccc(Cl)c3)nc2)c1Cl [III-6] | 100 | – | – | – | – | 100 | 100 | 100 | 100 | – | 100 | – | – | – | – | – | – |
| Cc1cc(Cl)ccc1Oc1ccc(CCNc2ncnc(C)c2Cl)cn1 [III-110] | 100 | 100 | 100 | 100 | 100 | 100 | 100 | 100 | 100 | 100 | – | 100 | 100 | 100 | 100 | 100 | – |
| CCc1ncnc(NCCc2ccc(Oc3ccccc3Cl)nc2)c1Cl [III-185] | 100 | – | – | – | 100 | 100 | – | 100 | 100 | 100 | – | – | – | – | – | – | – |
| Cc1nc(Cl)c(Cl)c(NCCc2ccc(Oc3ccc(Cl)cc3)nc2)n1 [III-2527] | 100 | 100 | 100 | 100 | – | 100 | – | – | – | – | 100 | 100 | 100 | 100 | 100 | 100 | control effect against cucumber downy mildew (%) (cucumber downy mildew; 6.25 mg/L): 75%; control effect against cucumber downy mildew (%) (cucumber downy mildew; 12.5 mg/L): 100%; protectant activity against cucumber downy mildew in vivo (cucumber downy mildew; 12.5 ppm): 100% |
